The values below come from EPA's ToxValDB 9.5 (doi:10.2903/j.efsa.2015.4001).

Data set [1] concerns Colinus virginianus. The conditions noted are these: acute; oral.
The test system of data set [2] is Oryctolagus sp. The conditions noted are these: developmental; development.
Data set [3] concerns Rattus norvegicus.
Data set [4] has as its system Mus musculus. Particulars: organ weight.
Data set [5] has as its system Apis mellifera. Particulars: acute, duration: 48 hours, mortality.
The test system of data set [6] is Tagia sp.
Data set [7] deals with Anas platyrhynchos. The conditions noted are these: reproductive.

With `CCOC(=O)COc1cc(-c2nn(C)c(OC(F)F)c2Cl)c(F)cc1Cl` [Pyraflufen-ethyl], the LD50 in data set [1] is above 2000 mg/kg-day; in data set [3] (acute, oral, mortality) it was above 5000 mg/kg-day; in data set [5] (dermal) it was above 100 µg/piece; in data set [5] (oral, unspecified), above 112 µg/piece. For the same compound, the NOAEL (commonly the highest dose or exposure tested at which no adverse effect was seen) was found to be 20 mg/kg-day in data set [2]; 20 mg/kg-day in data set [3] (chronic, duration: 2 years, organ weight); 20 mg/kg-day in data set [3] (reproduction developmental); 20 mg/kg-day in data set [4] (chronic, duration: 18 months); 20 mg/kg-day in data set [4] (subchronic, duration: 90 days, oral); 50 mg/kg-day in data set [7]. The compound further registered an LC50 in data set [6] (acute, duration: 14 days, mortality) above 500 mg/kg. Also, the NOEC in data set [6] (chronic/long-term) was at least 250 mg/kg.
